Assay results taken from PubChem BioAssay AID2060507 (Molecular Pharmacology Branch, DTP, NCI, 2025).
Blank lines part the entries; values can stand above or below the compound they belong to.

Tested on: 519858-162-T-J1-PDC complex spheroid viability
Test: Anticancer human tumor 519858-162-T-J1-PDC patient-derived colon adenocarcinoma cell line growth inhibition [GQUAD]
Settings: for IC50: curve of first compound; for viability, T/C: stronger effect = lower value
How it was run: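 Tumor cells were grown as complex spheroids with HUVEC endothelial cells and mesenchymal stem cells as stroma. G-quadruplex stabilizers were combined with targeted agents over half-log dilutions from near the clinical Cmax, or from 10 microM.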

[1] = second compound 0.0316 µM, first compound 0.0316 µM
[2] = second compound 0.0316 µM, first compound 0.1 µM
[3] = second compound 0.0316 µM, first compound 0.316 µM
[4] = second compound 0.0316 µM, first compound 1 µM
[5] = second compound 0.0316 µM, first compound 3.16 µM
[6] = second compound 0.0316 µM, first compound 10 µM
[7] = second compound 0.1 µM, first compound 0.0316 µM
[8] = second compound 0.1 µM, first compound 0.1 µM
[9] = second compound 0.1 µM, first compound 0.316 µM
[10] = second compound 0.1 µM, first compound 1 µM
[11] = second compound 0.1 µM, first compound 3.16 µM
[12] = second compound 0.1 µM, first compound 10 µM
[13] = second compound 0.316 µM, first compound 0.0316 µM
[14] = second compound 0.316 µM, first compound 0.1 µM
[15] = second compound 0.316 µM, first compound 0.316 µM
[16] = second compound 0.316 µM, first compound 1 µM
[17] = second compound 0.316 µM, first compound 3.16 µM
[18] = second compound 0.316 µM, first compound 10 µM
[19] = second compound 1 µM, first compound 0.0316 µM
[20] = second compound 1 µM, first compound 0.1 µM
[21] = second compound 1 µM, first compound 0.316 µM
[22] = second compound 1 µM, first compound 1 µM
[23] = second compound 1 µM, first compound 3.16 µM
[24] = second compound 1 µM, first compound 10 µM
[25] = second compound 3.16 µM, first compound 0.0316 µM
[26] = second compound 3.16 µM, first compound 0.1 µM
[27] = second compound 3.16 µM, first compound 0.316 µM
[28] = second compound 3.16 µM, first compound 1 µM
[29] = second compound 3.16 µM, first compound 3.16 µM
[30] = second compound 3.16 µM, first compound 10 µM
[31] = second compound 10 µM, first compound 0.0316 µM
[32] = second compound 10 µM, first compound 0.1 µM
[33] = second compound 10 µM, first compound 0.316 µM
[34] = second compound 10 µM, first compound 1 µM
[35] = second compound 10 µM, first compound 3.16 µM
[36] = second compound 10 µM, first compound 10 µM
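Note: spheroids exposed to compounds for 7 days.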
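Throughout, for viability, T/C: 100% = DMSO vehicle control viability.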

Compound: CCCS(=O)(=O)Nc1ccc(F)c(C(=O)c2c[nH]c3ncc(-c4ccc(Cl)cc4)cc23)c1F + Cc1[nH]c2ccc(F)cc2c1-c1nc2c3cccnc3c3ncccc3c2[nH]1
IC50 (second compound 0.0316 µM): > 10 µM | IC50 (second compound 0.1 µM): > 10 µM | IC50 (second compound 0.316 µM): > 10 µM | IC50 (second compound 1 µM): > 10 µM | IC50 (second compound 3.16 µM): 7 µM | IC50 (second compound 10 µM): > 10 µM | viability, T/C [1]: 90.7% | viability, T/C [2]: 92% | viability, T/C [3]: 83.7% | viability, T/C [4]: 129% | viability, T/C [5]: 135% | viability, T/C [6]: 101% | viability, T/C [7]: 103% | viability, T/C [8]: 119% | viability, T/C [9]: 97.9% | viability, T/C [10]: 113% | viability, T/C [11]: 87.6% | viability, T/C [12]: 107% | viability, T/C [13]: 101% | viability, T/C [14]: 116% | viability, T/C [15]: 108% | viability, T/C [16]: 75.4% | viability, T/C [17]: 112% | viability, T/C [18]: 119% | viability, T/C [19]: 62.5% | viability, T/C [20]: 74.1% | viability, T/C [21]: 99.3% | viability, T/C [22]: 99.2% | viability, T/C [23]: 115% | viability, T/C [24]: 101% | viability, T/C [25]: 86.3% | viability, T/C [26]: 51.3% | viability, T/C [27]: 81.9% | viability, T/C [28]: 72% | viability, T/C [29]: 86% | viability, T/C [30]: 38.7% | viability, T/C [31]: 79.8% | viability, T/C [32]: 53.7% | viability, T/C [33]: 60.8% | viability, T/C [34]: 89.2% | viability, T/C [35]: 105% | viability, T/C [36]: 109%

IC50 (second compound 0.0316 µM): > 10 µM | IC50 (second compound 0.1 µM): > 10 µM | IC50 (second compound 0.316 µM): > 10 µM | IC50 (second compound 1 µM): > 10 µM | IC50 (second compound 3.16 µM): < 0.0316 µM | IC50 (second compound 10 µM): < 0.0316 µM
Compound: O=C(c1cc(Cc2n[nH]c(=O)c3ccccc23)ccc1F)N1CCN(C(=O)C2CC2)CC1 + Cc1cnc(CNC(=O)c2c(=O)c3ccc(N4CCCN(C)CC4)nc3n3c2sc2ccccc23)cn1
viability, T/C [1]: 92.2% | viability, T/C [2]: 89.5% | viability, T/C [3]: 89.7% | viability, T/C [4]: 81.5% | viability, T/C [5]: 64.2% | viability, T/C [6]: 74.7% | viability, T/C [7]: 52.6% | viability, T/C [8]: 65.7% | viability, T/C [9]: 65.3% | viability, T/C [10]: 58.8% | viability, T/C [11]: 48.3% | viability, T/C [12]: 74.5% | viability, T/C [13]: 82.6% | viability, T/C [14]: 72.4% | viability, T/C [15]: 50.3% | viability, T/C [16]: 47.6% | viability, T/C [17]: 52.9% | viability, T/C [18]: 60.6% | viability, T/C [19]: 68.6% | viability, T/C [20]: 67.5% | viability, T/C [21]: 48.3% | viability, T/C [22]: 64.4% | viability, T/C [23]: 45.5% | viability, T/C [24]: 54.6% | viability, T/C [25]: 60% | viability, T/C [26]: 31.8% | viability, T/C [27]: 39.6% | viability, T/C [28]: 39.2% | viability, T/C [29]: 47.4% | viability, T/C [30]: 41.2% | viability, T/C [31]: 47.9% | viability, T/C [32]: 46.5% | viability, T/C [33]: 49.7% | viability, T/C [34]: 44.6% | viability, T/C [35]: 49% | viability, T/C [36]: 57.2%

Compound: COc1ncnc(C2CC2)c1-c1ncc2cnn(Cc3ccc(-c4nc(C(F)(F)F)cn4C(C)C)cc3)c2n1 + CN(C)c1ccc(Nc2c3ccc(NC(=O)CCN4CCCC4)cc3nc3cc(NC(=O)CCN4CCCC4)ccc23)cc1
IC50 (second compound 0.0316 µM): > 10 µM | IC50 (second compound 0.1 µM): > 10 µM | IC50 (second compound 0.316 µM): > 10 µM | IC50 (second compound 1 µM): > 10 µM | IC50 (second compound 3.16 µM): > 10 µM | IC50 (second compound 10 µM): > 10 µM | viability, T/C [1]: 120% | viability, T/C [2]: 83% | viability, T/C [3]: 103% | viability, T/C [4]: 89.3% | viability, T/C [5]: 99.6% | viability, T/C [6]: 115% | viability, T/C [7]: 93.4% | viability, T/C [8]: 97.8% | viability, T/C [9]: 102% | viability, T/C [10]: 75.6% | viability, T/C [11]: 91.4% | viability, T/C [12]: 103% | viability, T/C [13]: 86% | viability, T/C [14]: 117% | viability, T/C [15]: 116% | viability, T/C [16]: 76% | viability, T/C [17]: 66.5% | viability, T/C [18]: 84.9% | viability, T/C [19]: 85.1% | viability, T/C [20]: 80.7% | viability, T/C [21]: 67.5% | viability, T/C [22]: 68% | viability, T/C [23]: 73% | viability, T/C [24]: 72.4% | viability, T/C [25]: 114% | viability, T/C [26]: 79.7% | viability, T/C [27]: 52.2% | viability, T/C [28]: 56.6% | viability, T/C [29]: 54% | viability, T/C [30]: 69.8% | viability, T/C [31]: 58.7% | viability, T/C [32]: 53.3% | viability, T/C [33]: 99.4% | viability, T/C [34]: 61.9% | viability, T/C [35]: 51.7% | viability, T/C [36]: 104%
